The values that follow come from patent US10596150B2, “Antifungal agents” (F2G LIMITED, priority 2014, dated 2020).

≈ marks a conversion by molar mass, not a printed value.

Common to all, as to test: Minimum Inhibitory Concentration (MIC), RPMI medium
Assay type in all cases: cell-based

In assay [1] the test system is A. terreus. The note with it: Aspergillus terreus, >80% growth inhibition. Here is the method:
(§1) Between 1 and 5 mgs of the compound were accurately weighed out into a sterile Eppendorf tube. The compound was dissolved in DMSO to give a solution containing 5 mg/mL. Tubes were stored at −20° C. until required.
(§2) On the day of testing thawed solutions were vortex mixed to ensure homogeneity. 30 μL of solution was removed and added to 570 μL of sterile water in a separate sterile Eppendorf. The thoroughly mixed solution was used to prepare a series of doubling dilutions in water, in a deep well plate. Thirteen replicate plates were prepared using a Minitrak by aspirating 20 μL from each well into eleven clear polystyrene 96 well plates.
(§3) Spores of Aspergillus and Scedosporium were harvested from cultures grown on Sabarauds agar for 5 days, and resuspended in PBS/Tween 80 to approx 1×10^7 cfu/mL. Each organism suspension was diluted in RPMI medium, containing 2% glucose and 0.135 M MOPS buffer (pH 7.0) to 0.5-2×10^4 cfu/mL. 80 μL of an organism suspension was added to each well of the plate containing drug dilutions.
(§4) This produced MIC plates with a drug range 50-0.05 mg/L and organism inocula of 1-2×10^4 cfu/mL. All plates were incubated for 24-48 h at 35° C. Growth was assessed by monitoring the optical density at 485 nm for each well. The MIC of a compound is the lowest drug concentration that inhibits growth of an organism by >80% compared with a drug free control.

The test system of assay [2] is A. flavus. The note with it: Aspergillus flavus, >80% growth inhibition. As for the experimental part: as §1, §2, §3, §4
Assay [3] relates to A. terreus 49. The note with it: Aspergillus terreus, >80% growth inhibition. Here is the method: as §1, §2, §3, §4
For assay [4], the system named is A. niger. The note with it: Aspergillus niger, >80% growth inhibition. Here is the method:
as §1, §2, §3, §4

The test system of assay [5] is A. fumigatus 210. The note with it: Aspergillus fumigatus, >80% growth inhibition. Here is the method: as §1, §2, §3, §4
For assay [6], the system named is A. fumigatus. The note with it: Aspergillus fumigatus, >80% growth inhibition. Here is the method:
as §1, §2, §3, §4

In assay [7] the test system is Scedosporium apiospermum 8353. As for the experimental part:
as §1, §2, §3, §4

Assay [8] deals with Scedosporium prolificans 206. The note with it: Lomentospora prolificans. Here is the method: as §1, §2, §3, §4
Assay [9] concerns Scedosporium apiospermum 13486. Here is the method:
as §1, §2, §3, §4

Assay [10] has as its system Scedosporium apiospermum 4883. As for the experimental part: as §1, §2, §3, §4
Assay [11] concerns Scedosporium species 15849. Here is the method: as §1, §2, §3, §4
Assay [12] deals with Scedosporium apiospermum 15848. Here is the method:
as §1, §2, §3, §4

The test system of assay [13] is Scedosporium prolificans 18389. The note with it: Lomentospora prolificans. Here is the method: as §1, §2, §3, §4
Assay [14] concerns Scedosporium apiospermum 451. As for the experimental part:
as §1, §2, §3, §4

In assay [15] the test system is Scedosporium apiospermum 7935. Here is the method:
as §1, §2, §3, §4

Assay [16] deals with Scedosporium prolificans 6322. The note with it: Lomentospora prolificans. As for the experimental part: as §1, §2, §3, §4

`[2H]C1([2H])N(c2ccc(NC(=O)C(=O)c3c(-c4ccccc4)cc(C)n3C)cc2)C([2H])([2H])C([2H])([2H])N(c2ncc(F)cn2)C1([2H])[2H]` [Example 3, 2-(1,5-dimethyl-3-phenyl-1H-pyrrol-2-yl)-N-(4-(4-(5-fluoropyrimidin-2-yl)piperazin-1-yl-2,2,3,3,5,5,6,6-d8)phenyl)-2-oxoacetamide]: the MIC in [1], in assay [2], in assay [3], in [4], in assay [5] and in [6] was 0.04 to 0.06 µg/mL (≈ 0.079 to 0.118 µM) each time.

Turning to `[2H]c1c([2H])c(N2CCN(c3ncc(F)cn3)CC2)c([2H])c([2H])c1NC(=O)C(=O)c1c(-c2ccccc2)cc(C)n1C` [Example 4, 2-(1,5-dimethyl-3-phenyl-1H-pyrrol-2-yl)-N-(4-(4-(5-fluoropyrimidin-2-yl)piperazin-1-yl)phenyl-2,3,5,6-d4)-2-oxoacetamide], the MIC in assay [1], in [2], in assay [3], in assay [4], in assay [5] and in [6] was 0.04 to 0.06 µg/mL (≈ 0.0796 to 0.119 µM) throughout.

For the molecule `Cc1cc(-c2ccccc2)c(C(=O)C(=O)Nc2ccc(N3CCN(c4ccccn4)CC3)c(F)c2)n1C` [Ref. Example 1, 2-(1,5-Dimethyl-3-phenyl-1H-pyrrol-2-yl)-N-[3-fluoro-4-(4-pyridin-2-yl-piperazin-1-yl)-phenyl]-2-oxo-acetamide], the MIC in assay [1] is 0.04 to 0.06 µg/mL (≈ 0.0804 to 0.121 µM); in [2], over 0.06 µg/mL; in [3], 0.04 to 0.06 µg/mL (≈ 0.0804 to 0.121 µM); in assay [4], 0.04 to 0.06 µg/mL (≈ 0.0804 to 0.121 µM); in assay [5], 0.04 to 0.06 µg/mL (≈ 0.0804 to 0.121 µM); in [6], 0.04 to 0.06 µg/mL (≈ 0.0804 to 0.121 µM).

`Cc1cc(-c2ccccc2)c(C(=O)C(=O)Nc2ccc(N3CCN(c4ccccn4)CC3)cc2F)n1C` [Ref. Example 2, 2-(1,5-Dimethyl-3-phenyl-1H-pyrrol-2-yl)-N-[2-fluoro-4-(4-pyridin-2-yl-piperazin-1-yl)-phenyl]-2-oxo-acetamide]: the MIC in assay [1], in assay [2], in assay [3], in assay [4], in assay [5] and in assay [6] was 0.04 to 0.06 µg/mL (≈ 0.0804 to 0.121 µM) in each case.

Turning to `Cc1cc(C)nc(N2CCN(c3ccc(NC(=O)C(=O)c4c(-c5ccccc5)cc(C)n4C)cc3C)CC2)c1` [Ref. Example 3, 2-(1,5-Dimethyl-3-phenyl-1H-pyrrol-2-yl)-N-{4-[4-(4,6-dimethyl-pyridin-2-yl)-piperazin-1-yl]-3-methyl-phenyl}-2-oxo-acetamide], the MIC in assay [1], in assay [2], in assay [3], in assay [4], in [5] and in [6] was 0.04 to 0.06 µg/mL (≈ 0.0767 to 0.115 µM) throughout.

As for `Cc1ccnc(N2CCN(c3ccc(NC(=O)C(=O)c4c(-c5ccccc5)cc(C)n4C)cc3)CC2)c1` [Ref. Example 4, 2-(1,5-Dimethyl-3-phenyl-1H-pyrrol-2-yl)-N-{4-[4-(4-methyl-pyridin-2-yl)-piperazin-1-yl]-phenyl}-2-oxo-acetamide], the MIC in assay [1], in assay [2], in assay [3], in [4], in assay [5] and in assay [6] was 0.04 to 0.06 µg/mL (≈ 0.081 to 0.122 µM) throughout.

Consider `Cc1cccc(N2CCN(c3ccc(NC(=O)C(=O)c4c(-c5ccccc5)cc(C)n4C)cc3)CC2)n1` [Ref. Example 5, 2-(1,5-Dimethyl-3-phenyl-1H-pyrrol-2-yl)-N-{4-[4-(6-methyl-pyridin-2-yl)-piperazin-1-yl]-phenyl}-2-oxo-acetamide], for which the MIC in [1] was 0.04 to 0.06 µg/mL (≈ 0.081 to 0.122 µM); in [2] it was 0.04 to 0.06 µg/mL (≈ 0.081 to 0.122 µM); in assay [3], 0.04 to 0.06 µg/mL (≈ 0.081 to 0.122 µM); in assay [4] it was over 0.06 µg/mL; in assay [5], 0.04 to 0.06 µg/mL (≈ 0.081 to 0.122 µM); in [6] it was 0.04 to 0.06 µg/mL (≈ 0.081 to 0.122 µM).

For `Cc1cc(-c2ccccc2)c(C(=O)C(=O)Nc2ccc(N3CCN(c4ccccn4)CC3)cc2)n1C` [Ref. Example 6, 2-(1,5-Dimethyl-3-phenyl-1H-pyrrol-2-yl)-2-oxo-N-[4-(4-pyridin-2-yl-piperazin-1-yl)-phenyl]-acetamide], the MIC was 0.04 to 0.06 µg/mL (≈ 0.0834 to 0.125 µM) in [1]; over 0.06 µg/mL in [7]; over 0.06 µg/mL in [8]; over 0.06 µg/mL in assay [9] (Scedosporium apiospermum, 13486); over 0.06 µg/mL in [10]; over 0.06 µg/mL in assay [11]. Further, the MIC in assay [2] is 0.04 to 0.06 µg/mL (≈ 0.0834 to 0.125 µM); in assay [12] it was over 0.06 µg/mL; in assay [13], over 0.06 µg/mL; in assay [3] it was 0.04 to 0.06 µg/mL (≈ 0.0834 to 0.125 µM); in [4], over 0.06 µg/mL; in assay [5], 0.04 to 0.06 µg/mL (≈ 0.0834 to 0.125 µM). Further, the MIC is over 0.06 µg/mL in assay [14], over 0.06 µg/mL in [15], 0.04 to 0.06 µg/mL (≈ 0.0834 to 0.125 µM) in [6] and over 0.06 µg/mL in assay [16]. Moreover, the “MIC Scedosporium apiospermum 13486” value in [9] is recorded as “F (a grade of F represents an MIC of greater than 0.06 mg/L)”.

On to `Cc1cc(C)nc(N2CCN(c3ccc(NC(=O)C(=O)c4c(-c5ccccc5)cc(C)n4C)cc3O)CC2)c1` [Ref. Example 7, 2-(1,5-Dimethyl-3-phenyl-1H-pyrrol-2-yl)-N-{4-[4-(4,6-dimethyl-pyridin-2-yl)-piperazin-1-yl]-3-hydroxy-phenyl}-2-oxo-acetamide], for which the MIC in assay [1] was over 0.06 µg/mL; in assay [2], 0.04 to 0.06 µg/mL (≈ 0.0764 to 0.115 µM); in assay [3] it was over 0.06 µg/mL; in assay [4], over 0.06 µg/mL; in assay [5], over 0.06 µg/mL; in assay [6] it was over 0.06 µg/mL.

With `Cc1cc(C)nc(N2CCN(c3ccc(NC(=O)C(=O)c4c(-c5ccccc5)cc(C)n4C)c(Cl)c3)CC2)c1` [Ref. Example 8, N-{2-Chloro-4-[4-(4,6-dimethyl-pyridin-2-yl)-piperazin-1-yl]-phenyl}-2-(1,5-dimethyl-3-phenyl-1H-pyrrol-2-yl)-2-oxo-acetamide], the MIC in assay [1], in assay [2], in assay [3], in [4], in [5] and in assay [6] was 0.04 to 0.06 µg/mL (≈ 0.0738 to 0.111 µM) throughout.

As for `Cc1cc(C)nc(N2CCN(c3ccc(NC(=O)C(=O)c4c(-c5ccccc5)cc(C)n4C)cc3Cl)CC2)c1` [Ref. Example 9, N-{3-Chloro-4-[4-(4,6-dimethyl-pyridin-2-yl)-piperazin-1-yl]-phenyl}-2-(1,5-dimethyl-3-phenyl-1H-pyrrol-2-yl)-2-oxo-acetamide], the MIC in assay [1], in [2], in [3], in [4], in assay [5] and in assay [6] was 0.04 to 0.06 µg/mL (≈ 0.0738 to 0.111 µM) each time.
